Test results taken from paper PMC10617569, “The Ustilago maydis AA10 LPMO is active on fungal cell wall chitin” (Applied and Environmental Microbiology, 2023).

Target: T1, UmAA10_cd (Mycosarcoma maydis, UniProt A0A0D1CHL0)
T1 construct: gene UMAG_05439; catalytic domain only; C-terminal extension removed between Gly203 and Gly204; C-terminal (His)6-tag; made in Pichia pastoris SuperMan5; copper loaded
Experiment: Amplex red / HRP assay of H2O2 production, absorbance at […] nm
Type: biochemical
Details: reductant of the LPMO oxidase reaction, 50 µM ascorbic acid with O2; 1 µM enzyme; sodium phosphate 50 mM pH 7.0; 23°C

T1 sequence (A0A0D1CHL0 33-203): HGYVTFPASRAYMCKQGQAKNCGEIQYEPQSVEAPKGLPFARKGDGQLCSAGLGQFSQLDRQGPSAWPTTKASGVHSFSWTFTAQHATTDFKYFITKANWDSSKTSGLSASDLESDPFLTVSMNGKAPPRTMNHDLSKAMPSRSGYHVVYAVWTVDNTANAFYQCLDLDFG

O=C1O[C@H]([C@@H](O)CO)C(O)=C1O [ascorbic acid]
Amplex red / HRP assay of H2O2 production, absorbance at 575 nm: Using ascorbic acid (AscA) as a reductant, we found that UmAA10_cd produces H2O2
